Data: PubChem BioAssay AID1963861 (Molecular Pharmacology Branch, DTP, NCI, 2024)

Test system: 885724-159-R-J1-PDC KRAS PDC multicell spheroid viability
Assay: Anticancer human tumor 885724-159-R-J1-PDC patient-derived pancreatic adenocarcinoma cell line growth inhibition [KRAS2]
Settings: for IC50: curve of first compound; for viability, T/C: stronger effect = lower value
In short: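 Combination screen of spheroid viability in tumor-cell co-cultures with endothelial (HUVEC) and mesenchymal stem cell stroma. Each agent was tested in half-log dilutions, topping at clinical Cmax or at 10 microM without a known Cmax.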

[1] = second compound 0.1 µM, first compound 0.0316 µM
[2] = second compound 0.1 µM, first compound 0.1 µM
[3] = second compound 0.316 µM, first compound 0.0316 µM
[4] = second compound 0.316 µM, first compound 0.1 µM
[5] = second compound 1 µM, first compound 0.0316 µM
[6] = second compound 1 µM, first compound 0.1 µM
[7] = second compound 3.16 µM, first compound 0.0316 µM
[8] = second compound 3.16 µM, first compound 0.1 µM
[9] = second compound 10 µM, first compound 0.0316 µM
[10] = second compound 10 µM, first compound 0.1 µM
[11] = second compound 0.1 µM, first compound 0.316 µM
[12] = second compound 0.1 µM, first compound 1 µM
[13] = second compound 0.1 µM, first compound 3.16 µM
[14] = second compound 0.1 µM, first compound 10 µM
[15] = second compound 0.316 µM, first compound 0.316 µM
[16] = second compound 0.316 µM, first compound 1 µM
[17] = second compound 0.316 µM, first compound 3.16 µM
[18] = second compound 0.316 µM, first compound 10 µM
[19] = second compound 1 µM, first compound 0.316 µM
[20] = second compound 1 µM, first compound 1 µM
[21] = second compound 1 µM, first compound 3.16 µM
[22] = second compound 1 µM, first compound 10 µM
[23] = second compound 3.16 µM, first compound 0.316 µM
[24] = second compound 3.16 µM, first compound 1 µM
[25] = second compound 3.16 µM, first compound 3.16 µM
[26] = second compound 3.16 µM, first compound 10 µM
[27] = second compound 10 µM, first compound 0.316 µM
[28] = second compound 10 µM, first compound 1 µM
[29] = second compound 10 µM, first compound 3.16 µM
[30] = second compound 10 µM, first compound 10 µM
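Note: spheroids exposed to agents for 7 days before readout.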

| Compound | IC50 (second compound 0.1 µM) | IC50 (second compound 0.316 µM) | IC50 (second compound 1 µM) | IC50 (second compound 3.16 µM) | IC50 (second compound 10 µM) | viability, T/C [1] | viability, T/C [2] | viability, T/C [3] | viability, T/C [4] | viability, T/C [5] | viability, T/C [6] | viability, T/C [7] | viability, T/C [8] | viability, T/C [9] | viability, T/C [10] | viability, T/C [11] | viability, T/C [12] | viability, T/C [13] | viability, T/C [14] | viability, T/C [15] | also measured |
| --- | --- | --- | --- | --- | --- | --- | --- | --- | --- | --- | --- | --- | --- | --- | --- | --- | --- | --- | --- | --- | --- |
| CC(C)n1nc(-c2ccc3oc(N)nc3c2)c2c(N)ncnc21 + CNCc1ccccc1-c1csc(C(C)Nc2nc(C)nc3cc(OC)c(OC)cc23)c1 | > 100 nM | 42 nM | 58.3 nM | < 0.316 nM | < 0.316 nM | 54.6% | 52.4% | 50.2% | 45.6% | 50.2% | 48.5% | 3.15% | 1.32% | 0.23% | 0.34% | – | – | – | – | – | viability, T/C (second compound 0.1 µM, first compound 0.000316 µM): 87%; viability, T/C (second compound 0.1 µM, first compound 0.001 µM): 81.1%; viability, T/C (second compound 0.1 µM, first compound 0.00316 µM): 73.6%; viability, T/C (second compound 0.1 µM, first compound 0.01 µM): 65%; viability, T/C (second compound 0.316 µM, first compound 0.000316 µM): 100%; viability, T/C (second compound 0.316 µM, first compound 0.001 µM): 75.3%; viability, T/C (second compound 0.316 µM, first compound 0.00316 µM): 70.7%; viability, T/C (second compound 0.316 µM, first compound 0.01 µM): 60.6%; viability, T/C (second compound 1 µM, first compound 0.000316 µM): 85.8%; viability, T/C (second compound 1 µM, first compound 0.001 µM): 76.2%; viability, T/C (second compound 1 µM, first compound 0.00316 µM): 69.2%; viability, T/C (second compound 1 µM, first compound 0.01 µM): 60.6%; viability, T/C (second compound 3.16 µM, first compound 0.000316 µM): 2.37%; viability, T/C (second compound 3.16 µM, first compound 0.001 µM): 11.2%; viability, T/C (second compound 3.16 µM, first compound 0.00316 µM): 2.11%; viability, T/C (second compound 3.16 µM, first compound 0.01 µM): 1.36%; viability, T/C (second compound 10 µM, first compound 0.000316 µM): 0.19%; viability, T/C (second compound 10 µM, first compound 0.001 µM): 0.31%; viability, T/C (second compound 10 µM, first compound 0.00316 µM): 0.18%; viability, T/C (second compound 10 µM, first compound 0.01 µM): 0.18% |
| CC1(C)CCC(CN2CCN(c3ccc(C(=O)NS(=O)(=O)c4ccc(NCC5CCOCC5)c([N+](=O)[O-])c4)c(Oc4cnc5[nH]ccc5c4)c3)CC2)=C(c2ccc(Cl)cc2)C1 + CNCc1ccccc1-c1csc(C(C)Nc2nc(C)nc3cc(OC)c(OC)cc23)c1 | 6720 nM | 5820 nM | 5300 nM | < 31.6 nM | < 31.6 nM | 96.3% | 89.6% | 86.6% | 90.3% | 101% | 93.6% | 1.12% | 0.55% | 0.42% | 1.23% | 88.8% | 88.5% | 82.7% | 32.6% | 85.7% | viability, T/C [16]: 91%; viability, T/C [17]: 82.4%; viability, T/C [18]: 21%; viability, T/C [19]: 89.1%; viability, T/C [20]: 82.3%; viability, T/C [21]: 82.9%; viability, T/C [22]: 12.1%; viability, T/C [23]: 0.55%; viability, T/C [24]: 0.79%; viability, T/C [25]: 0.62%; viability, T/C [26]: 1.03%; viability, T/C [27]: 0.37%; viability, T/C [28]: 0.2%; viability, T/C [29]: 0.17%; viability, T/C [30]: 0.2% |
| COc1cc(Nc2ncc3c(n2)-c2ccc(Cl)cc2C(c2c(F)cccc2OC)=NC3)ccc1C(=O)O + CNCc1ccccc1-c1csc(C(C)Nc2nc(C)nc3cc(OC)c(OC)cc23)c1 | > 10000 nM | > 10000 nM | > 10000 nM | < 31.6 nM | < 31.6 nM | 102% | 98.5% | 102% | 92.7% | 94.8% | 87.7% | 2.11% | 2.66% | 0.16% | 0.37% | 90.5% | 92.7% | 94.7% | 101% | 89.4% | viability, T/C [16]: 88.5%; viability, T/C [17]: 81%; viability, T/C [18]: 87.7%; viability, T/C [19]: 73.6%; viability, T/C [20]: 81.4%; viability, T/C [21]: 75.6%; viability, T/C [22]: 83.5%; viability, T/C [23]: 1.13%; viability, T/C [24]: 1.16%; viability, T/C [25]: 4.03%; viability, T/C [26]: 12.1%; viability, T/C [27]: 0.43%; viability, T/C [28]: 0.34%; viability, T/C [29]: 0.16%; viability, T/C [30]: 0.35% |
| COc1cc2nccc(Oc3ccc(NC(=O)C4(C(=O)Nc5ccc(F)cc5)CC4)cc3)c2cc1OC + CNCc1ccccc1-c1csc(C(C)Nc2nc(C)nc3cc(OC)c(OC)cc23)c1 | > 10000 nM | > 10000 nM | 1770 nM | < 31.6 nM | < 31.6 nM | 98.3% | 105% | 96.9% | 101% | 99% | 89.9% | 1.16% | 0.87% | 0.39% | 0.36% | 99.2% | 103% | 69.5% | 61.3% | 95.3% | viability, T/C [16]: 90%; viability, T/C [17]: 61.6%; viability, T/C [18]: 58.7%; viability, T/C [19]: 85.1%; viability, T/C [20]: 86.1%; viability, T/C [21]: 13.3%; viability, T/C [22]: 12.6%; viability, T/C [23]: 1.19%; viability, T/C [24]: 0.42%; viability, T/C [25]: 0.32%; viability, T/C [26]: 0.42%; viability, T/C [27]: 0.17%; viability, T/C [28]: 0.18%; viability, T/C [29]: 0.51%; viability, T/C [30]: 0.47% |
